# “And” between values parts separate entries of the source, which are not always exact repeats. Identical values can stand only once.
# Tests used:
# S. agalactiae ATCC 27956 = experiment: MIC/MBC broth microdilution, S. agalactiae; format: cell-based, Streptococcus agalactiae; conditions: S. agalactiae
# Outline: (§1)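 BHI broth microdilution (NCCLS); ~10^5 CFU/mL; 37 °C, 18 h. MIC = lowest conc., no visible growth (≥90% vs untreated). MBC = ≤3 colonies, ≥99.9% kill. Water/DMSO/EtOH solvent controls; technical triplicate ×3 biological repeats.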
# fibroblasts (46BR.1N) = experiment: LDH cytotoxicity test, fibroblasts; format: cell-based; conditions: for concentration at which cytotoxic effect starts: LDH
# Outline: (§2)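 Cytotoxicity as LDH release after 48 h serum-free treatment (50, 100, 150 μg/mL peptidomimetics) of 46BR.1N fibroblasts or HaCaT keratinocytes seeded at 5000 per well. Absorbance 450 nm; untreated set as 0% and Triton X-100 1% as maximal release; Mann–Whitney U test, p ≤ 0.05.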
# S. cohnii c.i. = experiment: MIC/MBC broth microdilution, S. cohnii; format: cell-based, Staphylococcus cohnii
# Outline: as §1
# E. coli ATCC 25922 = experiment: MIC/MBC broth microdilution, E. coli; format: cell-based, Escherichia coli
# Outline: as §1
# S. aureus ATCC 43300 = experiment: MIC/MBC broth microdilution, S. aureus; format: cell-based, Staphylococcus aureus; conditions: S. aureus
# [1] = test system: human dermal fibroblast cell line (46BR.1N); experiment: XTT cell proliferation assay, fibroblasts; format: cell-based; conditions: XTT, 48 and 72 h, 0.01–150 μg/mL
# Outline: (§3)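 Proliferation was read as XTT absorbance at 490 nm after 4 h of reagent incubation, following 48 or 72 h of peptide exposure in serum-free HG-DMEM (37 °C, 5% CO2). The 72 h arm included a half-medium change with second peptide dose at 48 h. Significance by Mann–Whitney U, p ≤ 0.05.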
# [2] = Hydrophobicity by reverse-phase chromatography; format: physicochemical; conditions: acetonitrile content in the mobile phase at the retention time
# Excerpt: Reverse-phase chromatography was employed to assess the hydrophobicity characteristics of the peptidomimetics. Hydrophobicity was quantified by determining the acetonitrile content in the mobile phase at the retention time of a peptidyl derivative (Table S2). The least hydrophobic compound (40% acetonitrile) was A-198, which aligns with the calculations of hydrophobicity by SwissADME and pkCSM (Table ). Next in the hydrophobicity sequence were A-197, A-220, A-219, A-174, and A-221, eluting with 42.5-43.9% of acetonitrile. Then there were followed by […], and A-179, with the acetonitrile percentage of 44.8-49.8. The compounds A-176, A-20, A-152, A-134, and A-210 needed over 50% of acetonitrile to be eluted from the column.
# [3] = test system: immortalized human keratinocytes (HaCaT); experiment: LDH cytotoxicity test, keratinocytes; format: cell-based; conditions: for concentration at which cytotoxic effect starts: LDH
# Outline: as §2
# [4] = test system: K. pneumoniae ATCC 700603; experiment: MIC/MBC broth microdilution, K. pneumoniae; format: cell-based
# Outline: as §1
# P. aeruginosa ATCC 10145 = experiment: MIC/MBC broth microdilution, P. aeruginosa; format: cell-based
# Outline: as §1
# S. schleiferi c.i. = experiment: MIC/MBC broth microdilution, S. schleiferi; format: cell-based, Staphylococcus schleiferi
# Outline: as §1
# S. mutans c.i. = experiment: MIC/MBC broth microdilution, S. mutans; format: cell-based, Streptococcus mutans
# Outline: as §1
# S. pyogenes ATCC 19615 = experiment: MIC/MBC broth microdilution, S. pyogenes; format: cell-based, Streptococcus pyogenes; conditions: S. pyogenes
# Outline: as §1
# P. vulgaris ATCC 6896 = experiment: MIC/MBC broth microdilution, P. vulgaris; format: cell-based, Proteus vulgaris
# Outline: as §1
# [5] = test system: immortalized human HaCaT keratinocytes; experiment: XTT cell proliferation assay, keratinocytes; format: cell-based; conditions: XTT, 48 and 72 h, 0.01–150 μg/mL
# Outline: as §3
# E. faecalis c.i. = experiment: MIC/MBC broth microdilution, E. faecalis; format: cell-based, Enterococcus faecalis
# Outline: as §1
# [6] = 48 h, 50, 100 and 150 μg/mL, vs 1% Triton X-100
compound,measurement,setting,value
CC(C)C[C@H](NC(=O)[C@H](CCCNC(=N)N)NC(=O)OCc1ccccc1)C(=O)N[C@H](CN)C(C)C [Compound A-197],MIC,S. agalactiae ATCC 27956; H2O,> 512 µg/mL
same,MIC,S. agalactiae ATCC 27956; water additive DMSO,> 512 µg/mL
same,MIC,S. agalactiae ATCC 27956; water additive EtOH,> 512 µg/mL
same,"cytotoxicity (LDH), in words","fibroblasts (46BR.1N); 48 h, 50-150 μg/mL",no cytotoxicity
same,concentration at which cytotoxic effect starts,fibroblasts (46BR.1N); 48 h,> 150 µg/mL
same,MIC,S. cohnii c.i.; H2O,> 512 µg/mL
same,MIC,S. cohnii c.i.; water additive DMSO,> 512 µg/mL
same,MIC,S. cohnii c.i.; water additive EtOH,> 512 µg/mL
same,MIC,E. coli ATCC 25922; H2O,> 512 µg/mL
same,MIC,E. coli ATCC 25922; water additive DMSO,> 512 µg/mL
same,MIC,E. coli ATCC 25922; water additive EtOH,> 512 µg/mL
same,MIC,S. aureus ATCC 43300; H2O,> 512 µg/mL
same,MIC,S. aureus ATCC 43300; water additive DMSO,> 512 µg/mL
same,MIC,S. aureus ATCC 43300; water additive EtOH,> 512 µg/mL
same,"effect on proliferation, in words",[1],did not exert any negative impact
same,% AcCN (acetonitrile required for elution from the column),[2],42.5%
same,"cytotoxicity (LDH), in words","[3]; 48 h, 50-150 μg/mL",no cytotoxicity
same,concentration at which cytotoxic effect starts,[3]; 48 h,> 150 µg/mL
same,MIC,[4]; H2O,> 512 µg/mL
same,MIC,[4]; water additive DMSO,> 512 µg/mL
same,MIC,[4]; water additive EtOH,> 512 µg/mL
same,MIC,P. aeruginosa ATCC 10145; H2O,> 512 µg/mL
same,MIC,P. aeruginosa ATCC 10145; water additive DMSO,> 512 µg/mL
same,MIC,P. aeruginosa ATCC 10145; water additive EtOH,> 512 µg/mL
same,MIC,S. schleiferi c.i.; H2O,256 µg/mL
same,MIC,S. schleiferi c.i.; water additive DMSO,256 µg/mL
same,MIC,S. schleiferi c.i.; water additive EtOH,256 µg/mL
same,MBC,S. mutans c.i.; H2O,512 µg/mL
same,MIC,S. mutans c.i.; H2O,256 µg/mL
same,MBC,S. mutans c.i.; water additive EtOH,256 µg/mL
same,MIC,S. pyogenes ATCC 19615; H2O,> 512 µg/mL
same,MIC,S. pyogenes ATCC 19615; water additive DMSO,> 512 µg/mL
same,MIC,S. pyogenes ATCC 19615; water additive EtOH,> 512 µg/mL
same,MIC,P. vulgaris ATCC 6896; H2O,> 512 µg/mL
same,MIC,P. vulgaris ATCC 6896; water additive DMSO,> 512 µg/mL
same,MIC,P. vulgaris ATCC 6896; water additive EtOH,> 512 µg/mL
same,"effect on proliferation, in words",[5],did not exert any negative impact
same,MIC,E. faecalis c.i.; H2O,> 512 µg/mL
same,MIC,E. faecalis c.i.; water additive DMSO,> 512 µg/mL
same,MIC,E. faecalis c.i.; water additive EtOH,> 512 µg/mL
C=CCC(=O)NC[C@@H](NC(=O)[C@H](CC(C)C)NC(=O)[C@H](CCCNC(=N)N)NC(=O)OCc1ccccc1)C(C)C [Compound A-209],MIC,S. agalactiae ATCC 27956; H2O,> 512 µg/mL
same,MIC,S. agalactiae ATCC 27956; water additive DMSO,> 512 µg/mL
same,MIC,S. agalactiae ATCC 27956; water additive EtOH,> 512 µg/mL
same,cytotoxicity (LDH),fibroblasts (46BR.1N); [6],10–15%
same,concentration at which cytotoxic effect starts,fibroblasts (46BR.1N); 48 h,> 150 µg/mL and 150 µg/mL
same,MIC,S. cohnii c.i.; H2O,> 512 µg/mL
same,MIC,S. cohnii c.i.; water additive DMSO,> 512 µg/mL
same,MIC,S. cohnii c.i.; water additive EtOH,> 512 µg/mL
same,MIC,E. coli ATCC 25922; H2O,> 512 µg/mL
same,MIC,E. coli ATCC 25922; water additive DMSO,> 512 µg/mL
same,MIC,E. coli ATCC 25922; water additive EtOH,> 512 µg/mL
same,MIC,S. aureus ATCC 43300; H2O,> 512 µg/mL
same,MIC,S. aureus ATCC 43300; water additive DMSO,> 512 µg/mL
same,MIC,S. aureus ATCC 43300; water additive EtOH,> 512 µg/mL
same,"effect on proliferation, in words",[1],did not exert any negative impact
same,% AcCN (acetonitrile required for elution from the column),[2],49.6% and 44.8–49.8%
same,cytotoxicity (LDH),[3]; [6],10–15%
same,concentration at which cytotoxic effect starts,[3]; 48 h,> 150 µg/mL and 150 µg/mL
same,MIC,[4]; H2O,> 512 µg/mL
same,MIC,[4]; water additive DMSO,> 512 µg/mL
same,MIC,[4]; water additive EtOH,> 512 µg/mL
same,MIC,P. aeruginosa ATCC 10145; H2O,> 512 µg/mL
same,MIC,P. aeruginosa ATCC 10145; water additive DMSO,> 512 µg/mL
same,MIC,P. aeruginosa ATCC 10145; water additive EtOH,> 512 µg/mL
same,MBC,S. schleiferi c.i.; H2O,512 µg/mL
same,MIC,S. schleiferi c.i.; H2O,256 µg/mL
same,MBC,S. schleiferi c.i.; water additive DMSO,512 µg/mL
same,MIC,S. schleiferi c.i.; water additive DMSO,256 µg/mL
same,MBC,S. schleiferi c.i.; water additive EtOH,512 µg/mL
same,MIC,S. schleiferi c.i.; water additive EtOH,256 µg/mL
same,MBC,S. mutans c.i.; H2O,256 µg/mL
same,MBC,S. mutans c.i.; water additive DMSO,256 µg/mL
same,MBC,S. mutans c.i.; water additive EtOH,256 µg/mL
same,MIC,S. pyogenes ATCC 19615; H2O,> 512 µg/mL
same,MIC,S. pyogenes ATCC 19615; water additive DMSO,> 512 µg/mL
same,MIC,S. pyogenes ATCC 19615; water additive EtOH,> 512 µg/mL
same,MIC,P. vulgaris ATCC 6896; H2O,> 512 µg/mL
same,MIC,P. vulgaris ATCC 6896; water additive DMSO,> 512 µg/mL
same,MIC,P. vulgaris ATCC 6896; water additive EtOH,> 512 µg/mL
same,"effect on proliferation, in words",[5],did not exert any negative impact
same,MIC,E. faecalis c.i.; H2O,> 512 µg/mL
same,MIC,E. faecalis c.i.; water additive DMSO,> 512 µg/mL
same,MIC,E. faecalis c.i.; water additive EtOH,> 512 µg/mL
